Measured values from the NIST ThermoML archive (doi:10.1021/acs.jced.5b00903).

Assay: xn = mol fraction of the nth substance listed
Conditions: surface light scattering

CCCO [propan-1-ol] + CC(C)CC(C)(C)C
x2 = 0
Conditions | surface tension liquid-gas [mN/m]
298.15 K | 23.31
303.15 K | 22.9
308.15 K | 22.52
313.15 K | 22.1
318.15 K | 21.68
323.15 K | 21.27

CCCCCO [pentan-1-ol] + CC(C)CC(C)(C)C
surface tension liquid-gas [mN/m]
Conditions | x2 = 0 | x2 = 0.1004 | x2 = 0.2003 | x2 = 0.3 | x2 = 0.4 | x2 = 0.5 | x2 = 0.5999 | x2 = 0.6998 | x2 = 0.7999 | x2 = 0.8996
298.15 K | 25.29 | 23.81 | 22.53 | 21.7 | 20.97 | 20.3 | 19.77 | 19.38 | 18.94 | 18.64
303.15 K | 24.87 | 23.28 | 22.05 | 21.22 | 20.49 | 19.82 | 19.3 | 18.93 | 18.51 | 18.22
308.15 K | 24.46 | 22.83 | 21.56 | 20.71 | 19.98 | 19.3 | 18.79 | 18.42 | 18.01 | 17.75
313.15 K | 24.05 | 22.42 | 21.08 | 20.23 | 19.51 | 18.84 | 18.34 | 18 | 17.61 | 17.38
318.15 K | 23.65 | 21.99 | 20.58 | 19.71 | 18.97 | 18.3 | 17.79 | 17.45 | 17.07 | 16.85
323.15 K | 23.21 | 21.5 | 20.14 | 19.26 | 18.51 | 17.83 | 17.34 | 17.02 | 16.65 | 16.43

CC(C)CC(C)(C)C [2,2,4-trimethylpentane] + CCCO
surface tension liquid-gas [mN/m]
Conditions | x1 = 0.1 | x1 = 0.2 | x1 = 0.3 | x1 = 0.4 | x1 = 0.4999 | x1 = 0.5996 | x1 = 0.6998 | x1 = 0.7995 | x1 = 0.9 | x1 = 1
298.15 K | 22.09 | 21.18 | 20.58 | 20.05 | 19.57 | 19.22 | 18.96 | 18.69 | 18.51 | 18.3
303.15 K | 21.65 | 20.73 | 20.12 | 19.6 | 19.12 | 18.77 | 18.53 | 18.26 | 18.09 | 17.9
308.15 K | 21.23 | 20.28 | 19.66 | 19.12 | 18.64 | 18.29 | 18.05 | 17.78 | 17.62 | 17.43
313.15 K | 20.77 | 19.81 | 19.19 | 18.66 | 18.19 | 17.85 | 17.63 | 17.39 | 17.25 | 17.09
318.15 K | 20.31 | 19.31 | 18.67 | 18.13 | 17.65 | 17.31 | 17.09 | 16.85 | 16.72 | 16.56
323.15 K | 19.84 | 18.82 | 18.18 | 17.64 | 17.17 | 16.84 | 16.65 | 16.43 | 16.33 | 16.2

CC(C)CC(C)(C)C [2,2,4-trimethylpentane] + CCCCCCCO
x1 = 1
Conditions | surface tension liquid-gas [mN/m]
298.15 K | 18.3
303.15 K | 17.9
308.15 K | 17.43
313.15 K | 17.09
318.15 K | 16.56
323.15 K | 16.2

CC(C)CC(C)(C)C [2,2,4-trimethylpentane] + CCCCCO
x1 = 1
Conditions | surface tension liquid-gas [mN/m]
298.15 K | 18.3
303.15 K | 17.9
308.15 K | 17.43
313.15 K | 17.09
318.15 K | 16.56
323.15 K | 16.2
